{"source": "patent US20070010582A1", "about": "“Use of N-chlorotaurine for treatment of oozing tissue deficiencies” (priority 2005, published 2007)", "key": {"oozing ear channel": {"tested_on": "oozing ear channel", "assay": "Instillation/rinsing of the oozing ear channel with NCT solution after tympanoplasty (case reports)", "type": "in vivo, human", "excerpt": "Rinsing the ear channel with NCT solution provokes in general a drying of the ear channel and the tympanoplastic within 1-2 days.\nA human patient with a traumatic perforation of the tympanic membrane was provided with a tympanoplasty. After removing incrustations and granulation tissue, the destroyed tympanic membrane was excised and substituted by a fascia temporalis. After taking away the tamponade, the microbiological culture of a swab from the reconstructed tympanic membrane and the ear channel was sterile. Subsequently, the oozing ear channel was treated one time daily for two days by instillation of 2 mL of aqueous 1% NCT solution. […] The complete epithelization was achieved 3 days earlier than by the conventional treatment with fuchsine.\nA human patient suffering from a perforation of the tympanic membrane caused by a chronic inflammation of the middle ear received tympanoplasty. After removing incrustations and granulation tissue, the destroyed tympanic membrane was excised and substituted by a fascia temporalis. After taking away the tamponade, the microbiological culture of a swab from the reconstructed tympanic membrane and the ear channel was sterile. Subsequently, the oozing and swollen ear channel was treated one time daily for five days by instillation of 2 mL of aqueous 1% NCT solution. […] The complete epithelization was achieved 3 days earlier than by the conventional treatment with fuchsine."}, "[1]": {"tested_on": "open leg ulcer with fibrous coating", "assay": "Wound dressing soaked with NCT solution on open leg ulcer with fibrous coating (case report)", "type": "in vivo, human", "conditions": "single patient", "procedure": "A human patient suffering from an open leg ulcer with fibrous coating caused by a burn accident was treated two times daily with wound dressing soaked with aqueous 1% NCT solution. […] Microbiological cultures of swabs before and after therapy were sterile."}, "outer ear canal": {"tested_on": "outer ear canal", "assay": "Pilot study (open phase IIa), postoperative irrigation of external auditory canal after tympanoplasty: efficacy", "type": "in vivo, human", "conditions": "12 patients", "procedure": "Local irrigations of the external auditory canal with 3 ml of 1% N-chlorotaurine solution were performed once daily until the canal was dry.\nAn open phase IIa study was performed in 12 patients after tympanoplasty. They received a single-shot antibiotic therapy with 2 g Spizef (cefotiam) i.v. perioperatively.\n(§1) After removing the ear-tamponade, which remained in place for 2 to 3 weeks postoperatively, 3 ml of the 1% aqueous NCT solution was applied once daily to the outer ear canal. The endpoint of the treatment was defined as a completely dry canal, corresponding to a clinical score of zero (see below for scoring).\nThe primary criterion for the judgement of the status of the external meatus was a six-scale clinical score (0-5) based on visual observation via ear microscopy (zero=dry outer ear canal; 5=moist outer ear canal with inflammation).\nClinical examination of the outer ear canal was performed daily for detection of moisture, signs of infection, and judgement of epithelisation of the neo-tympanon.\nA completely dry external meatus (score zero) was considered as the endpoint criterion for the termination of the study.\nMoisture and inflammation of the external auditory canal during and after irrigation with NCT were compared to those before treatment using the Wilcoxon test. P-values <0.05 were considered to indicate statistical significance. Due to the limited number of patients no corrections for multiple comparisons were applied."}, "[2]": {"assay": "Pilot study (open phase IIa) after tympanoplasty: tolerability", "type": "in vivo, human", "conditions": "12 patients", "procedure": "as §1\nThe second criterion was subjective pain, ascertained by a visual analogue scale.\nBefore and at the end of the study an audiogram was performed in all patients.\nAll subjects completed the study."}, "[3]": {"assay": "pH of aqueous NCT solution", "type": "physicochemical", "conditions": "no buffers"}, "[4]": {"assay": "Storage stability of aqueous NCT solution", "type": "physicochemical", "conditions": "1% (55 mM) aqueous solution stored at 2-4° C.", "procedure": "Pure NCT as a crystalline sodium salt was dissolved in sterile distilled water to a concentration of 1% (55 mM). Purity was verified by iodometric titration and spectrophotometry. […] Solutions were stored at 2-4° C., where they are stable for 1 year, and allowed to reach room temperature before application to the patients."}, "[5]": {"conditions": "single patient after tympanoplasty, 2 mL aqueous 1% NCT solution one time daily"}}, "data": [{"compound": "O=S(=O)(O)CCNCl", "note": "[NCT, N-chlorotaurine]", "values": [{"measurement": "period of oozing subsequent to operations", "setting": "oozing ear channel; e.g. otoplastic operations, general statement", "value": "reduced the period of oozing"}, {"measurement": "drying of the ear channel and the tympanoplastic", "setting": "oozing ear channel; rinsing the ear channel with NCT solution, general statement", "value": "1 to 2", "unit": "days"}, {"measurement": "time after which oozing ceased", "setting": "oozing ear channel; single patient after tympanoplasty, 2 mL aqueous 1% NCT solution instilled one time daily", "value": "three"}, {"measurement": "time after which swelling ceased", "setting": "oozing ear channel; single patient after tympanoplasty, 2 mL aqueous 1% NCT solution instilled one time daily for five days", "value": "two"}, {"measurement": "complete epithelization achieved earlier than by conventional treatment with fuchsine", "setting": "oozing ear channel; [5]", "value": 3, "unit": "days"}, {"measurement": "incorporation of the temporal fascia", "setting": "oozing ear channel; [5]", "value": "proceeded without problems"}, {"measurement": "treatment time after which fibrous coating disappeared", "setting": "[1]; burn accident, dressing soaked with aqueous 1% NCT solution two times daily", "value": "three"}, {"measurement": "microbiological cultures of swabs before and after therapy", "setting": "[1]; aqueous 1% NCT solution two times daily", "value": "sterile"}, {"measurement": "healing process", "setting": "[1]; dressing soaked with aqueous 1% NCT solution two times daily", "value": "went on without problems"}, {"measurement": "epithelisation of the new tympanon on ear microscopy", "setting": "outer ear canal; 3 ml 1% NCT once daily", "value": "proceeded regularly without granulation"}, {"measurement": "infection in the postoperative course", "setting": "outer ear canal; 3 ml 1% NCT once daily", "value": "No infection occurred"}, {"measurement": "necessary time for achieving a score of zero (range)", "setting": "outer ear canal; 3 ml 1% NCT once daily", "value": "2 to 5", "unit": "days"}, {"measurement": "time needed for complete epithelisation (mean±SD)", "setting": "outer ear canal; 3 ml 1% NCT once daily", "value": "22.6 ± 3.5", "unit": "days"}, {"measurement": "time needed for complete epithelisation (range)", "setting": "outer ear canal; 3 ml 1% NCT once daily", "value": "18 to 31", "unit": "days"}, {"measurement": "average clinical score (0-5)", "setting": "outer ear canal; 3 ml 1% NCT once daily, days 2-5 vs day 1, Wilcoxon p=0,001-0,002", "value": "decreased daily"}, {"measurement": "necessary time for achieving a score of zero (mean±SD)", "setting": "outer ear canal; 3 ml 1% NCT once daily, score zero = dry outer ear canal", "value": "2.75 ± 0.87", "unit": "days"}, {"measurement": "drying of the outer ear canal", "setting": "outer ear canal; 3 ml 1% aqueous NCT once daily", "value": "Rapid drying of the outer ear canal was detected in all patients"}, {"measurement": "allergic reactions during the whole period of treatment", "setting": "[2]; 3 ml 1% NCT once daily", "value": "no signs of allergic reactions"}, {"measurement": "damage to the inner ear (audiogram before and after treatment)", "setting": "[2]; 3 ml 1% NCT once daily", "value": "no signs of damage to the inner ear"}, {"measurement": "dizziness or nystagmus", "setting": "[2]; 3 ml 1% NCT once daily", "value": "No dizziness or nystagmus occurred"}, {"measurement": "subjective pain (visual analogue scale)", "setting": "[2]; 3 ml 1% NCT once daily", "value": "without occurrence of any pain"}, {"measurement": "tolerability of therapy", "setting": "[2]; 3 ml 1% NCT once daily to outer ear canal", "value": "tolerated very well"}, {"measurement": "pH of aqueous solutions", "setting": "[3]", "value": 8}, {"measurement": "stability of solutions on storage", "setting": "[4]", "value": 1, "unit": "year"}]}]}
